Test results reported in patent publication US12215100B2, “Anticancer compounds” (Pharma Mar, S.A., priority 2018, dated 2025).

How the values were obtained:
Format in all cases: cell-based, human
[1] = system: MDA-MB-231; assay: SRB colorimetric cytotoxicity assay, MDA-MB-231; conditions: Homo sapiens, breast adenocarcinoma
Excerpt: (§1) The aim of this assay is to evaluate the in vitro cytostatic (ability to delay or arrest tumor cell growth) or cytotoxic (ability to kill tumor cells) activity of the samples being tested.
(§2) A colorimetric assay, using sulforhodamine B (SRB) reaction has been adapted to provide a quantitative measurement of cell growth and viability (following the technique described by V. Vichai and K. Kirtikara (2006) Nature Protoc. 1, 1112-1116.)
(§3) This form of assay employs 96-well cell culture microplates. All the cell lines used in this study were obtained from the American Type Culture Collection (ATCC), unless otherwise indicated, and derive from different types of human cancer.
(§4) Cells were maintained in Dulbecco's Modified Eagle Medium (DMEM) (for A549, HT-29 and MDA-MB-231) or RPMI (for PSN-1) supplemented with 10% Fetal Bovine Serum (FBS), 2 mM L-glutamine, 100 U/mL penicillin and 100 U/mL streptomycin at 37° C., 5% CO2 and 98% humidity. For the experiments, cells were harvested from subconfluent cultures using trypsinization and resuspended in fresh medium before counting and plating.
(§5) Cells were seeded in 96 well microtiter plates, at 5×10^3 cells per well in aliquots of 150 μL, and allowed to attach to the plate surface for 18 hours (overnight) in drug free medium. After that, one control (untreated) plate of each cell line was fixed (as described below) and used for time zero reference value. […] After 72 hours treatment, the antitumor effect was measured by using the SRB methodology: Briefly, cells were washed twice with PBS, fixed for 15 min in 1% glutaraldehyde solution at room temperature, rinsed twice in PBS, and stained in 0.4% SRB solution for 30 min at room temperature. Cells were then rinsed several times with 1% acetic acid solution and air-dried at room temperature. SRB was then extracted in 10 mM trizma base solution and the absorbance measured in an automated spectrophotometric plate reader at 490 nm. Effects on cell growth and survival were estimated by applying the NCI algorithm (Boyd M R and Pauli K D. Drug Dev Res. 1995, 34, 91-104).
(§6) Using the mean±SD of triplicates, a dose-response curve was automatically generated using nonlinear regression analysis to a 4-parameter logistic curve. Three reference parameters were calculated (NCI algorithm) by automatic interpolation: GI50=compound concentration that produces 50% cell growth inhibition, as compared to control cultures; TGI=total cell growth inhibition (cytostatic effect), as compared to control cultures, and LC50=compound concentration that produces 50% net cell killing (cytotoxic effect).

[2] = system: A549; assay: SRB colorimetric cytotoxicity assay, A549; conditions: Homo sapiens, lung carcinoma (NSCLC)
Excerpt: as §1, §2, §3, §4, §5, §6

[3] = system: HT29; assay: SRB colorimetric cytotoxicity assay, HT29; conditions: Homo sapiens, colorectal adenocarcinoma
Excerpt: as §1, §2, §3, §4, §5, §6

[4] = system: PSN-1; assay: SRB colorimetric cytotoxicity assay, PSN-1; conditions: Homo sapiens, pancreatic adenocarcinoma
Excerpt: as §1, §2, §3, §4, §5, §6

[5] = MDA-MB-231, 72 h, 72 hours treatment
[6] = HT-29, 72 h, 72 hours treatment

Compound | GI50 [1, 5] | GI50 ([2]; A549, 72 h, 72 hours treatment) | GI50 [3, 6] | GI50 ([4]; PSN1, 72 h, 72 hours treatment) | GI50 ([1]; MDA-MB-231, 72 hours treatment) | GI50 ([2]; A549, 72 hours treatment) | GI50 ([3]; HT-29, 72 hours treatment) | GI50 ([4]; PSN1, 72 hours treatment)
COc1cc([C@@H](CCC(F)(F)F)NC(=O)[C@]2(C)CSC(/C(C)=N\O)=N2)oc(=O)c1 [Compound 140a] | 2270 nM | 2530 nM | 1520 nM | 2760 nM |  |  |  | 
C#CCOc1cc([C@@H](CCC)NC(=O)[C@]2(C)CSC(C(C)=NO)=N2)oc(=O)c1CC#C [Compound 141] | 248 nM | 225 nM | 178 nM | 338 nM |  |  |  | 
C=CCOc1cc([C@@H](CCC)NC(=O)[C@]2(C)CSC(/C(C)=N/OCCOCCOCCOCC)=N2)oc(=O)c1 [Compound 144] | 162 nM | 72.2 nM | 65.2 nM | 125 nM |  |  |  | 
CCC[C@@H](NC(=O)[C@]1(C)CSC(/C(C)=N/OCCOCCOCCOCC)=N1)c1cc(OCC2CC2)cc(=O)o1 [Compound 145] | 122 nM | 48.1 nM | 61.9 nM | 112 nM |  |  |  | 
CCC[C@@H](NC(=O)[C@]1(C)CSC(/C(C)=N/OCCCCO[Si](C)(C)C(C)(C)C)=N1)c1cc(OC)cc(=O)o1 [Compound 146] |  |  |  |  | 2820 nM | 1940 nM | 1020 nM | 2110 nM
CCC[C@@H](NC(=O)[C@]1(C)CSC(/C(C)=N/OCCCCO)=N1)c1cc(OC)cc(=O)o1 [Compound 147] | 287 nM | 148 nM | 137 nM | 243 nM |  |  |  | 
CCC[C@@H](NC(=O)[C@]1(C)CSC(/C(C)=N/OCCCCO[Si](C)(C)C(C)(C)C)=N1)c1cc(OCC2CC2)cc(=O)o1 [Compound 148] |  |  |  |  | 247 nM | 263 nM | 59.2 nM | 296 nM
CCC[C@@H](NC(=O)[C@]1(C)CSC(/C(C)=N/OCCCCO)=N1)c1cc(OCC2CC2)cc(=O)o1 [Compound 149] | 8.91 nM | 6.69 nM | 6.28 nM | 13.6 nM |  |  |  | 
CCC[C@@H](NC(=O)[C@]1(C)CSC(/C(C)=N/OCCCS)=N1)c1cc(OC)cc(=O)o1 [Compound 151] | 1340 nM | 856 nM | 505 nM | 1210 nM |  |  |  | 
C=CCOc1cc([C@@H](CCC)NC(=O)[C@]2(C)CSC(/C(C)=N/OCCCNC(=O)OC(C)(C)C)=N2)oc(=O)c1 [Compound 152] | 26.6 nM | 19.5 nM | 19.5 nM | 21.3 nM |  |  |  | 
C#CCOc1cc([C@@H](CCC)NC(=O)[C@]2(C)CSC(/C(C)=N/OCCCNC(=O)OC(C)(C)C)=N2)oc(=O)c1 [Compound 155] | 74.8 nM | 37.4 nM | 40.9 nM | 73 nM |  |  |  | 
CCC[C@@H](NC(=O)[C@]1(C)CSC(/C(C)=N/OCCCNC(=O)OC(C)(C)C)=N1)c1cc(OCC2CC2)cc(=O)o1 [Compound 157] | 5.37 nM | 5.37 nM | 5.02 nM | 5.54 nM |  |  |  | 
CCC[C@@H](NC(=O)[C@]1(C)CSC(/C(C)=N/OCCC2COC(C)(C)O2)=N1)c1cc(OCC2CC2)cc(=O)o1 (stereo partly drawn) [Compound 159] | 67.3 nM | 49.1 nM | 63.7 nM | 50.9 nM |  |  |  | 
C=CCOc1cc([C@@H](CCC)NC(=O)[C@]2(C)CSC(C(C)=NOCCCCN3CCOCC3)=N2)oc(=O)c1 [Compound 161] | 6.49 nM | 4.96 nM | 5.47 nM | 5.13 nM |  |  |  | 
C=CCOc1cc([C@@H](CCC)NC(=O)[C@]2(C)CSC(C(C)=NOCCCN3CCN(C)CC3)=N2)oc(=O)c1 [Compound 163] | 16.6 nM | 16.1 nM | 15.6 nM | 16.4 nM |  |  |  | 
C=CCOc1cc([C@@H](CCC)NC(=O)[C@]2(C)CSC(/C(C)=N/OC(=O)COCCOCCOC)=N2)oc(=O)c1 [Compound 164] | 7.22 nM | 6.52 nM | 4.58 nM | 6.52 nM |  |  |  | 
C=CCOc1cc([C@@H](CCC)NC(=O)[C@]2(C)CSC(/C(C)=N/OC(=O)CCCCCNC(=O)OC(C)(C)C)=N2)oc(=O)c1 [Compound 165] | 7.41 nM | 5.48 nM | 5.32 nM | 6.44 nM |  |  |  | 

Compound | GI50 [1, 5] | GI50 ([2]; A549, 72 h, 72 hours treatment) | GI50 [3, 6] | GI50 ([4]; PSN1, 72 h, 72 hours treatment) | GI50 ([1]; MDA-MB-231, 72 hours treatment) | GI50 ([2]; A549, 72 hours treatment) | GI50 ([3]; HT-29, 72 hours treatment) | GI50 ([4]; PSN1, 72 hours treatment)
CCC[C@@H](NC(=O)[C@]1(C)CSC(/C(C)=N/OC(=O)CCCCCNC(=O)OC(C)(C)C)=N1)c1cc(OCC2CC2)cc(=O)o1 [Compound 166] | 7.09 nM | 4.73 nM | 4.57 nM | 6.3 nM |  |  |  | 
C=CCOc1cc([C@@H](CCC)NC(=O)[C@]2(C)CSC(/C(C)=N/OC(=O)[C@H]3O[C@@H]4OC(C)(C)O[C@@H]4[C@H]4OC(C)(C)O[C@H]43)=N2)oc(=O)c1 [Compound 170] | 5.57 nM | 3.01 nM | 2.41 nM | 2.71 nM |  |  |  | 
C=CCOc1cc([C@@H](CCC)NC(=O)[C@]2(C)CSC(/C(C)=N/OP(=O)(OCc3ccccc3)OCc3ccccc3)=N2)oc(=O)c1 [Compound 172] | 108 nM | 80.9 nM | 56.9 nM | 100 nM |  |  |  | 
CCC[C@@H](NC(=O)[C@@H]1CSC(C(C)=O)=N1)c1cc(OCC2CC2)cc(=O)o1 [Compound 177] | 1610 nM | 2270 nM | 1550 nM | > 25500 nM |  |  |  | 
CCC[C@@H](NC(=O)[C@@H]1CSC(/C(C)=N/O)=N1)c1cc(OCC2CC2)cc(=O)o1 [Compound 178] | 49.1 nM | 41.7 nM | 76.1 nM | 36.8 nM |  |  |  | 
CCC[C@@H](NC(=O)[C@]1(C)CSC(/C(C)=N/O[C@H]2O[C@@H]3COC(C)(C)O[C@H]3[C@@H]3OC(C)(C)O[C@H]23)=N1)c1cc(OCC2CC2)cc(=O)o1 [Compound 179] | 13.7 nM | 9.04 nM | 6.48 nM | 14.3 nM |  |  |  | 
CCC[C@@H](NC(=O)[C@]1(C)CSC(/C(C)=N/O[C@H]2O[C@H](CO)[C@@H](O)[C@@H]3OC(C)(C)O[C@H]23)=N1)c1cc(OCC2CC2)cc(=O)o1 [Compound 180] | 417 nM | 593 nM | 369 nM | 529 nM |  |  |  | 
CCC[C@@H](NC(=O)[C@]1(C)CSC(/C(C)=N/O[C@H]2O[C@H](CO)[C@@H](O)[C@H](O)[C@@H]2O)=N1)c1cc(OCC2CC2)cc(=O)o1 [Compound 181] | 6340 nM | > 17100 nM | 4970 nM | 6850 nM |  |  |  | 
C=C(C)C1=N[C@](C)(C(=O)N[C@H](CCC)c2cc(OCC3CC3)cc(=O)o2)CS1 [Compound 182] | 91.5 nM | 61.8 nM | 74.2 nM | 81.6 nM |  |  |  | 
CCC[C@@H](NC(=O)[C@]1(C)CSC(/C(C)=N/O[Si](c2ccccc2)(c2ccccc2)C(C)(C)C)=N1)c1cc(OCC2CC2)cc(=O)o1 [Compound 183] |  |  |  |  | 5 nM | 5.76 nM | 5.46 nM | 8.18 nM
CCC[C@@H](NC(=O)[C@]1(C)CSC(/C(C)=N/O[Si](c2ccccc2)(c2ccccc2)C(C)(C)C)=N1)c1cc(O)cc(=O)o1 [Compound 184] |  |  |  |  | 4460 nM | 4790 nM | 2970 nM | 4130 nM
C=C(OCC)C1=N[C@](C)(C(=O)N[C@H](CCC)c2cc(OCC3CC3)cc(=O)o2)CS1 [Compound 185] | 228 nM | 161 nM | 207 nM | 140 nM |  |  |  | 
C=CCOc1cc([C@@H](CCC)NC(=O)[C@]2(C)CSC(/C(C)=N/O)=N2)[nH]c(=O)c1 [Compound 190] | 239 nM | 590 nM | 244 nM | 344 nM |  |  |  | 
CCC[C@@H](NC(=O)[C@]1(C)CSC(/C(C)=N/OCCCCOP(=O)(OC(C)(C)C)OC(C)(C)C)=N1)c1cc(OCC2CC2)cc(=O)o1 [Compound 191] | 612 nM | 496 nM | 554 nM | 875 nM |  |  |  | 
CCC[C@@H](NC(=O)[C@]1(C)CSC(/C(C)=N/OCCCCOP(=O)(O)O)=N1)c1cc(OCC2CC2)cc(=O)o1 [Compound 192] | 16.4 nM | 9.07 nM | 7.15 nM | 27.9 nM |  |  |  | 
CCC[C@H](NC(=O)[C@]1(C)CSC(/C(C)=N/O)=N1)c1cc(OC)cc(=O)o1 [Compound epi-1] | 3930 nM | 2880 nM | 3410 nM | 5770 nM |  |  |  | 
